According to patent US5677459A, “Methods for the preparation of modulators of acetylcholine receptors” (Sibia Neurosciences, Inc., priority 1995, dated 1997):
Like-named read-outs stand apart in the source and are kept apart here.

Columns and labels:
[1] = tested on: ^3 H-Norepinephrine release, rat prefrontal cortex slices; experiment: Ligand-stimulated ^3 H-norepinephrine release from rat prefrontal cortex slices; type: cell-based; settings: in vitro slices, 300 μM
Description: (§1) Measurement of ^3 H-dopamine release from rat striatal slices was performed according to the method of Sacaan et al. (J. Neurochem. 59:245 (1992)). Male Sprague-Dawley rats (250-300 g) were decapitated and the striata or olfactory tubercles dissected quickly on a cold glass surface. The tissue was chopped to a thickness of 300 μm with a McIlwain tissue chopper. After chopping again at right angles the tissue was dispersed and incubated for 10 min. at 37° C. in oxygenated Kreb's buffer. ^3 H-Dopamine (40 Ci/mmol, NEN- Dupont, Boston, Mass.) was added (50 nM) and the tissue was incubated for 30 min. in Kreb's buffer containing 10 μM pargyline and 0.5 mM ascorbic acid. Aliquots of the minced tissue were then transferred to chambers of a Brandel Superfusion system in which the tissue was supported on Whatman GF/B filter discs. The tissue was then superfused with buffer at a constant flow rate of 0.3 ml/min by means of a Brandel peristaltic pump. The perfusate was collected in plastic scintillation vials in 3-min fractions, and the radioactivity was estimated by scintillation spectrophotometry. The superfusate for the first 120 min was discarded. After two baseline fractions had been collected, the superfusion buffer was switched to fresh buffer with or without compound of interest. At the end of the experiment the filter and the tissue were removed, and the radiolabeled neurotransmitter content was estimated after extraction into scintillation fluid. The fractional efflux of radiolabeled neurotransmitter was estimated as the amount of radioactivity in the perfusate fraction relative to the total amount in the tissue.
(§2) Following essentially the same procedure as set forth above, the amount of ^3 H-norepinephrine released from rat hippocampus, thalamus and prefrontal cortex slices superfused with buffer containing (or lacking) compounds of interest was also measured.
(§3) Results of studies of the effects of an invention compound (as compared to the effect of nicotine) on the release of neurotransmitters from rat brain slices are presented in Table II. Results presented in Part A of the Table are expressed as the percent fractional release and results presented in Part B of the Table are expressed as a percentage, relative to nicotine response.

rats = experiment: Locomotor activity assay; type: in vivo, rat (male Sprague-Dawley); settings: Rattus norvegicus, sc, 1 mg/kg salt, s.c.
Description: This assay can be used to assess the primary effect of a compound on general motor activity. A decrease in locomotor activity is indicative of a possible sedative effect on the animal, whereas an increase in locomotor activity is indicative of a stimulant effect on the animal.
Locomotor activity of rats (male Sprague-Dawley (Harlan) weighing 200-250 gm) was measured for 2 hrs in photocell cages immediately after administration of the invention compound. Prior to the test day, the animals were placed in the activity cages for 3 hrs to familiarize them with the experimental environment. On the test day, the animals were placed in the photocell cages and then injected with compound 1.5 hrs later.
The photocell cages were standard rodent cages (30 cm×20 cm×40 cm) with four infrared beams crossing the long axis. The animals were under no motivational constraints and were free to move around. Movements from one infrared beam to another (ambulation) were called "crossover"; successive interruptions of the same beam (vertical and other movements such as grooming) were called "general activity."

[2] = tested on: ^3 H-Dopamine release, rat striatal slices; experiment: Ligand-stimulated ^3 H-dopamine release from rat striatal slices; type: cell-based
Description: as §1, §3

[3] = tested on: ^3 H-Norepinephrine release, rat thalamus slices; experiment: Ligand-stimulated ^3 H-norepinephrine release from rat thalamus slices; type: cell-based; settings: Nicotine concentration was 100 μM
Description: as §1, §2, §3

[4] = tested on: ^3 H-Norepinephrine release, rat hippocampus slices; experiment: Ligand-stimulated ^3 H-norepinephrine release from rat hippocampus slices; type: cell-based
Description: as §1, §2, §3

[5] = tested on: ^3 H-Dopamine release, rat olfactory tubercles; experiment: Ligand-stimulated ^3 H-dopamine release from rat olfactory tubercles; type: cell-based; settings: Nicotine concentration was 100 μM
Description: as §1, §3

[6] = tested on: rats with unilateral 6-hydroxydopamine lesions of the nigrostriatal dopamine pathway; type: in vivo, rat (male Sprague-Dawley); settings: rat, in vivo
Description: Selective lesions of the brain dopamine pathway using the neurotoxin 6-hydroxydopamine (6-OHDA) in rats can be used as an experimental approach to Parkinson's disease. Unilateral lesions of the nigrostriatal dopamine pathway induce a postural asymmetry which becomes manifested as rotation when the animals are activated by dopamine releasers or dopamine agonists. When amphetamine and other stimulant drugs that induce pre-synaptic release of dopamine from intact nerve terminals are administered, the rats rotate in a direction ipsilateral to the lesion. In contrast, when the rats are injected with post-synaptic dopamine receptor agonists, such as apomorphine, they turn in a contralateral direction, due to the development of supersensitive dopamine receptors in the lesioned side. Thus, the 6-OHDA model can be used to determine if a suspected dopaminergic agent is active, and to differentiate whether such action is pre- or post-synaptic.
The effects of invention compounds on rotational behavior in 6-hydroxydopamine denervated rats were evaluated using the procedure of Ungerstedt and Arbutknott, Brain Res. 24:485-493 (1970). Male Sprague-Dawley rats (Zivic Miller) weighing 170-200 gm were used in the 6-OHDA procedure. The ascending nigrostriatal dopamine pathway was lesioned by unilateral stereotaxic injection of 6-OHDA (8.0 μg) into one substantia nigra. All injections of 6-OHDA were preceded by desmethylimipramine (25 mg/kg i.p.) and pargyline (75 mg/kg i.p.) approximately 30 minutes prior to undergoing stereotaxic surgery for 6-OHDA infusion into the substantia nigra. After one week of recovery from surgery, the effectiveness of the lesions was verified by noting the response of the animals to apomorphine (0.2 mg/kg, s.c.). Only rats with a minimum rate of 80 contralateral turns per 30 minutes (a sign of more than 80-90% dopamine depletion after a 6-OHDA lesion) were used. Two weeks later, the selected rats were tested with invention and reference compounds using an automated rotometer system to record the number and direction of rotations. In order to distinguish spontaneous (non-specific)rotations from induced rotations (specific to the effect of the drug), each rat was used as its own control, employing the following procedure:
The rat was placed in the rotometer system for acclimatation for 15 minutes, the vehicle administered subcutaneously, the rat's rotations recorded for one hour, then test compound was administered s.c. and rotations again recorded for one hour. The number of ipsilateral rotations induced by vehicle was then compared to the number of ipsilateral rotations induced by test compound. Statistical analysis of the data was carried out using Student's t-test (paired).

Structure (SMILES): CN1CCCC1c1cccnc1 (stereo not drawn) [Nicotine, nicotine, reference compound]
- percent fractional release, ^3 H-Norepinephrine, Prefrontal Cortex [1]: 2.32%
- change in vivo at 1 mg/kg (rats; 1 h, 0-60 min, read-out: Ambulation (cross overs), percent of change from control): 169%
- change in vivo at 1 mg/kg (rats; 1 h, 0-60 min, read-out: General Activity (beam breaks), percent of change from control): 27%
- change in vivo at 1 mg/kg (rats; 2 h, 60-120 min, read-out: Ambulation (cross overs), percent of change from control): 163%
- change in vivo at 1 mg/kg (rats; 2 h, 60-120 min, read-out: General Activity (beam breaks), percent of change from control): 71%
- percent fractional release, ^3 H-Dopamine, Striatum ([2]; Nicotine concentration was 100 μM): 1.84%
- Emax at 10 µM ([2]; Rattus norvegicus, nicotine itself at 10 μM (reference), read-out: % of Nicotine Response, ^3 H-Dopamine, Striatum): 100%
- percent fractional release, ^3 H-Norepinephrine, Thalamus [3]: 1.83%
- Emax at 300 µM ([4]; Rattus norvegicus, nicotine 300 μM = 100, read-out: % of Nicotine Response, ^3 H-Norepinephrine, Hippocampus): 100%
- percent fractional release, ^3 H-Norepinephrine, Hippocampus ([4]; in vitro slices, 300 μM): 6.19%
- percent fractional release, ^3 H-Dopamine, Olfactory Tubercles [5]: 5.61%
- Percent change from control (ipsilateral rotations) [6]: +357
